Results as given in US20080234233A1, “MEDICAMENT FOR TREATMENT OF NEURODEGENERATIVE DISEASES” (INSTITUTE OF MEDICINAL MOLECULAR DESIGN INC., priority 2002, published 2008).

What was measured:
NF-κ B activation = assay: Inhibitory activity of NF-κB activation, luciferase reporter assay under TNF-α stimulation in HepG2; assay type: cell-based, human; conditions: HepG2, TNF-α 40 ng/ml, 4 hours; for inhibition at 1 µg/mL / inhibition at 10 µg/mL: Homo sapiens, read-out: Inhibitory rate against NF-κB activation (%)
Outline: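 HepG2 cells transiently transfected with luciferase reporter carrying five tandem NF-κB binding sites, then stimulated with TNF-α (40 ng/ml) ± compound for 4 hours. Luminescent luciferase activity measured; inhibition expressed relative to activity without compound.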

AP-1 activation = assay: Inhibition against AP-1 activation by TNF α stimulation, luciferase reporter assay in HeLa; assay type: cell-based, human; conditions: TNF-α 40 ng/ml, 4 hours; for inhibition at 1 µg/mL / inhibition at 10 µg/mL: Homo sapiens, read-out: Inhibitory rate against AP-1 activation(%)
Method: Measurement of Inhibition Against AP-1 Activation by TNF α Stimulation
Using a transfection reagent(Effectene; QIAGEN), the human uterine cancer cell strain HeLa was transfected with a plasmid(pAP-1-Luc Reporter Plasmid: […]) integrated with an oligonucleotide having seven tandem copies of AP-1 binding sequences(TGACTAA) on an upstream region of firefly luciferase gene(Luc) according to the QIAGEN's protocol, and the cells were incubated for 6 to 24 hours. After addition of TNF-α (40 ng/ml) in the presence or absence of a test compound, the cells were incubated for 4 hours, and intracellular luciferase activity was measured by using PicaGene LT(TOYO INK MFG Co., Ltd.) and a chemical luminescence measurement apparatus([…]luor Plus; TECAN). The inhibitory ratio was measured as a ratio relative to the value of the luciferase activity in the absence of the test compound.

Row | SMILES | Inhibitory rate against NF-κB activation (%) (NF-κ B activation; Drug concentration at 1 μg/mL) | Inhibitory rate against NF-κB activation (%) (NF-κ B activation; Drug concentration at 10 μg/mL) | Inhibitory rate against AP-1 activation(%) (AP-1 activation; Drug concentration at 10 μg/mL) | inhibition at 1 µg/mL (NF-κ B activation; Drug concentration at 1 μg/mL) [%] | other results
1 | O=C(Nc1cc(C(F)(F)F)cc(C(F)(F)F)c1)c1cc(Br)ccc1O [compound 6] | 94.9 | 98.6 | 91.2 |  | Inhibitory rate against AP-1 activation(%) (AP-1 activation; Drug concentration at 1 μg/mL): 48.4%
2 | O=C(Nc1cc(C(F)(F)F)cc(C(F)(F)F)c1)c1cc(I)ccc1O [compound 7, N-[3,5-bis(trifluoromethyl)phenyl]-2-hydroxy-5-iodobenzamide] |  |  |  | 86.6 | inhibition at 10 µg/mL (NF-κ B activation; Drug concentration at 10 μg/mL): 85.4%; inhibition at 1 µg/mL (AP-1 activation; Drug concentration at 1 μg/mL): 25.4%; inhibition at 10 µg/mL (AP-1 activation; Drug concentration at 10 μg/mL): 82.4%
3 | O=C(Nc1cc(C(F)(F)F)cc(C(F)(F)F)c1)c1cc(/C=C/c2ccccc2)ccc1O [compound 19] | 95.5 | 96.9 | 33.9 |  | 
4 | O=C(Nc1cc(C(F)(F)F)cc(C(F)(F)F)c1)c1cc(C#Cc2ccccc2)ccc1O [compound 22, N-[3,5-bis(trifluoromethyl)phenyl]-2-hydroxy-5-(phenylethynyl)-benzamide] |  |  |  | 83.9 | inhibition at 10 µg/mL (NF-κ B activation; Drug concentration at 10 μg/mL): 97.1%; inhibition at 10 µg/mL (AP-1 activation; Drug concentration at 10 μg/mL): 44.1%
5 | O=C(Nc1cc(C(F)(F)F)cc(C(F)(F)F)c1)c1cc(-c2ccccc2)ccc1O [compound 23] | 91.8 | 96.8 | 60.9 |  | Inhibitory rate against AP-1 activation(%) (AP-1 activation; Drug concentration at 1 μg/mL): 18.1%
6 | O=C(Nc1cc(C(F)(F)F)cc(C(F)(F)F)c1)c1cc(-c2ccsc2)ccc1O [compound 29] | 81.7 | 92.9 | 51.5 |  | 
7 | O=C(Nc1cc(C(F)(F)F)cc(C(F)(F)F)c1)c1cc(Cl)cnc1O [compound 75] | 58.1 | 82.2 | 56.7 |  | Inhibitory rate against AP-1 activation(%) (AP-1 activation; Drug concentration at 1 μg/mL): 33.3%
8 | O=C(Nc1cc(Cl)cc(Cl)c1)c1cc(F)ccc1O [compound 124] | 94.2 | 97.0 | 67.7 |  | 
9 | O=C(Nc1cc(Cl)cc(Cl)c1)c1cc(Cl)ccc1O [compound 125] | 84.5 | 96.8 | 74.8 |  | Inhibitory rate against AP-1 activation(%) (AP-1 activation; Drug concentration at 1 μg/mL): 22.7%
10 | O=C(Nc1cc(Cl)cc(Cl)c1)c1cc(Br)ccc1O [compound 126] | 77.1 | 92.8 | 83.8 |  | Inhibitory rate against AP-1 activation(%) (AP-1 activation; Drug concentration at 1 μg/mL): 39.3%
11 | O=C(Nc1cc(Cl)cc(Cl)c1)c1cc(I)ccc1O [compound 127] | 85.4 | 97.1 | 75.4 |  | 
12 | O=C(Nc1nc(C(F)(F)F)c(Br)s1)c1cc(Br)ccc1O [compound 187] | 85.3 | 94.4 | 49.9 |  | 
13 | O=C(Nc1nc(-c2ccccc2)c(-c2ccccc2)s1)c1cc(Br)ccc1O [compound 211] |  | 67.0 | 29.7 |  | 
14 | O=C(Nc1nc(-c2ccccc2)c(C(=O)O)s1)c1cc(Br)ccc1O [compound 217, 2-(5-bromo-2-hydroxybenzoyl)amino-4-phenylthiazole-5-carboxylic acid] |  |  |  |  | inhibition at 1 µg/mL (AP-1 activation; Drug concentration at 1 μg/mL): 21.7%; inhibition at 10 µg/mL (AP-1 activation; Drug concentration at 10 μg/mL): 55.3%
15 | CCOC(=O)c1sc(NC(=O)c2cc(-c3ccccc3)ccc2O)nc1-c1ccccc1 [compound 225] | 34.6 |  | 33.5 |  | 
16 | O=C(Nc1nnc(C(F)(F)F)s1)c1ccccc1O [compound 237, 2-Hydroxy-N-(5-trifluoromethyl-1,3,4-thiadiazol-2-yl)benzamide] |  |  |  |  | inhibition at 10 µg/mL (NF-κ B activation; Drug concentration at 10 μg/mL): 81.9%
17 | O=C(Nc1nnc(C(F)(F)F)s1)c1cc(Br)ccc1O [compound 238] | 26.1 | 90.3 |  |  | 
18 | O=C(Nc1ccc(Cl)nc1)c1cc(Cl)ccc1O [compound 240] | 14.3 | 92.3 |  |  | 
19 | COc1cc(Cl)nc(NC(=O)c2cc(Cl)ccc2O)n1 [compound 241] | 25.5 | 78.9 |  |  | 
20 | O=C(Nc1cnc2ccccc2c1)c1cc(Cl)ccc1O [compound 242] |  | 85.7 |  |  | 

Row | SMILES | Inhibitory rate against NF-κB activation (%) (NF-κ B activation; Drug concentration at 1 μg/mL) | Inhibitory rate against NF-κB activation (%) (NF-κ B activation; Drug concentration at 10 μg/mL) | Inhibitory rate against AP-1 activation(%) (AP-1 activation; Drug concentration at 10 μg/mL) | inhibition at 1 µg/mL (NF-κ B activation; Drug concentration at 1 μg/mL) [%] | other results
21 | O=C(Nc1cccc(Br)n1)c1cc(Cl)ccc1O [compound 243] | 84.2 | 95.1 |  |  | 
22 | O=C(Nc1cc(C(F)(F)F)cc(C(F)(F)F)c1)c1cc(S(=O)(=O)Nc2cc(C(F)(F)F)cc(C(F)(F)F)c2)ccc1O [compound 247] |  | >99.9 |  |  | 
23 | O=C(Nc1cc(C(F)(F)F)cc(C(F)(F)F)c1)c1cccc(-c2ccccc2)c1O [compound 249, N-[3,5-bis(trifluoromethyl)phenyl]-2-hydroxy-3-phenylbenzamide] |  |  |  | 86.6 | inhibition at 10 µg/mL (NF-κ B activation; Drug concentration at 10 μg/mL): 90.7%
24 | O=C(Nc1cc(C(F)(F)F)cc(C(F)(F)F)c1)c1ccc(F)cc1O [compound 250] | 94.2 | 95.4 |  |  | 
25 | N#Cc1ccc(Oc2ccc(C(F)(F)F)cc2NC(=O)c2cc(Cl)ccc2O)cc1 [compound 252] | 93.9 | 96.3 |  |  | 
26 | COc1ccc(Oc2ccc(C(F)(F)F)cc2NC(=O)c2cc(Cl)ccc2O)cc1 [compound 253] | 96.3 | 99.5 |  |  | 
27 | O=C(Nc1nc(-c2ccc(Cl)cc2Cl)cs1)c1cc(Cl)ccc1O [compound 255, 5-Chloro-2-hydroxy-N-[4-(2,4-dichlorophenyl)thiazol-2-yl]benzamide] |  |  |  | > 99.9 | 
28 | CC(C)c1cccc(C(=O)Nc2cc(C(F)(F)F)cc(C(F)(F)F)c2)c1O [compound 256, N-[3,5-bis(trifluoromethyl)phenyl]-2-hydroxy-3-isopropylbenzamide] |  |  |  | 92.1 | 
29 | CC(C)c1cc(Br)cc(C(=O)Nc2cc(C(F)(F)F)cc(C(F)(F)F)c2)c1O [compound 257] | >99.9 |  |  |  | 
30 | Cc1cc(Br)cc(C(=O)Nc2cc(C(F)(F)F)cc(C(F)(F)F)c2)c1O [compound 258] | >99.9 |  |  |  | 
31 | O=C(Nc1cc(C(F)(F)F)cc(C(F)(F)F)c1)c1cc(Br)cc(-c2ccccc2)c1O [compound 259] | >99.9 |  |  |  | 
32 | O=C(Nc1nc(-c2ccc(Cl)c(Cl)c2)cs1)c1cc(Cl)ccc1O [compound 260, 5-Chloro-2-hydroxy-N-[4-(3,4-dichlorophenyl)thiazol-2-yl]benzamide] |  |  |  | > 99.9 | 
33 | O=C(Nc1nc(-c2ccc(C(F)(F)F)cc2)cs1)c1cc(Cl)ccc1O [compound 261, 5-Chloro-2-hydroxy-N-{4-[4-(trifluoromethyl)phenyl]thiazol-2-yl}benzamide] |  |  |  | > 99.9 | 
34 | O=C(Nc1cc(C(F)(F)F)cc(C(F)(F)F)c1)c1ccc(-c2ccccc2)cc1O [compound 262, N-[3,5-Bis(trifluoromethyl)phenyl]-2-hydroxy-4-phenylbenzamide] |  |  |  | > 99.9 | 
35 | O=C(Nc1nc(-c2cc(F)ccc2F)cs1)c1cc(Cl)ccc1O [compound 263, 5-Chloro-2-hydroxy-N-[4-(2,5-difluorophenyl)thiazol-2-yl]benzamide] |  |  |  | > 99.9 | 
36 | COc1ccc(-c2csc(NC(=O)c3cc(Cl)ccc3O)n2)cc1 [compound 264, 5-Chloro-2-hydroxy-N-[4-(4-methoxyphenyl)thiazol-2-yl]benzamide] |  |  |  | > 99.9 | 
37 | O=C(Nc1nc(-c2cccc(C(F)(F)F)c2)cs1)c1cc(Cl)ccc1O [compound 265, 5-Chloro-2-hydroxy-N-{4-[3-(trifluoromethyl)phenyl]thiazol-2-yl}benzamide] |  |  |  | > 99.9 | 
38 | O=C(Nc1nc(-c2c(F)c(F)c(F)c(F)c2F)cs1)c1cc(Cl)ccc1O [compound 266, 5-Chloro-2-hydroxy-N-[4-(2,3,4,5,6-pentafluorophenyl)thiazol-2-yl]benzamide] |  |  |  | > 99.9 | 
39 | Cc1ccc(C(=O)c2ccccc2)c(NC(=O)c2cc(Cl)ccc2O)c1 [compound 267] | 28.6 |  |  |  | 
40 | O=C(Nc1cc(C(F)(F)F)ccc1C(F)(F)F)c1cc(Br)ccc1O [compound 268] | 87.1 | 98.4 |  |  | 
